{"source": "patent US11123355B2", "about": "“Antiviral benzyl-amine phosphodiamide compounds” (Merck Sharp & Dohme Corp., priority 2016, dated 2021)", "key": {"HIV-1 (H9/IIB strain)": {"test_system": "HIV-1 (H9/IIB strain)", "assay": "Multiple Round HIV-1 Infection Assay (Viking Assay) in MT4-GFP cells", "assay_type": "cell-based", "details": "inhibition of reproductive ratio R0", "outline": "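Inhibition of the reproductive ratio R0, derived from the rise in GFP-positive cells between ~48 h and ~72 h post-infection, was fitted by 4-parameter regression to give IC50. Cells infected at MOI ~0.01 were exposed to compound (typically 8.4 μM–0.42 nM final) in 10% or 50% normal human serum.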"}, "[1]": {"assay": "Prodrug Stability Assay in Bio-Relevant Media (FaSSIF with Pancreatin)", "assay_type": "in vitro ADME", "details": "0.5 mg/mL Pancreatin in FaSSIF, 37° C.; HPLC peak area of prodrug at 5 h divided by that at 0 h", "method": "Prodrug Stability Assay in Bio-Relevant Media\nThe following assay was employed to evaluate the stability of the prodrugs in simulated gastrointestinal tract conditions. Preparation of fasted state simulated intestinal fluid (FaSSIF) using Phares SIF Powder was carried out according to protocols from Phare Drug Delivery AG (Baselland, Switzerland). For sample preparation, 10 μL stock solutions (10 mM) of prodrug substance in DMSO was added to 990 μL of 0.5 mg/mL Pancreatin solution (Fisher CAS #8049-47-6) in FaSSIF. Two samples were prepared for each compound. If the sample was a clear solution, it was directly analyzed by HPLC. If the sample was not clear, the sample was diluted with 100% MeCN, maintained at 37° C. and observed 5 h later. If the sample was clear, HPLC analysis was directly performed. If the sample was still not clear, the sample was diluted with 100% ACN and assayed by HPLC. All the samples were vortexed for 3 min and observed before injection. For the diluted samples, the area is multiplied by a dilution factor when the data is analyzed. The analysis was carried out with an Agilent 1100 series HPLC with autosampler. The column was a Poroshell 120 EC-C18, 4.6×50 mm, 2.7 μm. The flow rate was 1.8 mL/min, and the injection volume was 5 or 10 μL. UV detection was in the range 210-400 nm. The mobile phase consisted of solvent A (water plus 10 mM tetrabutylammonium bromide) and solvent B (acetonitrile) with a gradient of: 90% solvent A at 0 min, changing to 95% solvent B over 6 min, maintaining for 1.5 min, then reverting to 90% solvent A over 1.6 min. The HPLC peak area of the prodrug at 5 h was divided by the HPLC peak area of the prodrug at 0 h, to generate the % claimed parent ratio, which is summarized in Table 2 for gastrointestinal (GI) Tract stability."}, "[2]": {"details": "MT4-GFP cells infected with HIV-1, 10% normal human serum, read-out: Viking, IC50 (10% NHS)"}, "[3]": {"details": "MT4-GFP cells infected with HIV-1, 50% normal human serum, read-out: Viking, IC50 (50% NHS)"}}, "note": "Read-outs that look alike come from different tables or passages of the source."}
{"compound": "CCCOC(=O)C(C)(C)N[P@@](=O)(CO[C@H](C)Cn1cnc2c(N)ncnc21)N[C@H](C)c1cccc(F)c1", "note": "[Example 9B, propyl 2-(((R)-((((R)-1-(6-amino-9H-purin-9-yl)propan-2-yl)oxy)methyl)(((R)-1-(3-fluorophenyl)ethyl)amino)phosphoryl)ami-no)-2-methylpropanoate and propyl 2-(((S)-((((R)-1-(6-amino-9H-purin-9-yl)propan-2-yl)oxy)methyl)(((R)-1-(3-fluorophenyl)ethyl)amino)phosphoryl)ami-no)-2-methylpropanoate]", "values": [{"measurement": "IC50", "setting": "HIV-1 (H9/IIB strain); [2]", "result": 12, "unit": "nM"}, {"measurement": "IC50", "setting": "HIV-1 (H9/IIB strain); [3]", "result": 130, "unit": "nM"}, {"measurement": "GI Tract stability (%)", "setting": "[1]", "result": 90.9, "unit": "%"}]}
{"compound": "CCCOC(=O)C(C)(C)NP(=O)(CO[C@H](C)Cn1cnc2c(N)ncnc21)N[C@H](C)c1ccc(C(F)(F)F)cc1", "note": "(stereo partly drawn) [Example 12B, propyl 2-(((R)-((((R)-1-(6-amino-9H-purin-9-yl)propan-2-yl)oxy)methyl)(((R)-1-(4-(trifluoromethyl)phenyl)ethyl)amino)phos-phoryl)amino)-2-methylpropanoate and propyl 2-(((S)-((((R)-1-(6-amino-9H-purin-9-yl)propan-2-yl)oxy)methyl)(((R)-1-(4-(trifluoromethyl)phenyl)ethyl)amino)phos-phoryl)amino)-2-methylpropanoate]", "values": [{"measurement": "IC50", "setting": "HIV-1 (H9/IIB strain); [2]", "result": 2.2, "unit": "nM"}, {"measurement": "IC50", "setting": "HIV-1 (H9/IIB strain); [3]", "result": 11, "unit": "nM"}, {"measurement": "GI Tract stability (%)", "setting": "[1]", "result": 99.1, "unit": "%"}]}
{"compound": "CCCOC(=O)C(C)(C)NP(=O)(CO[C@H](C)Cn1cnc2c(N)ncnc21)N[C@@H](C)c1ccc(OC(F)(F)F)cc1", "note": "(stereo partly drawn) [Example 19A, propyl 2-(((R)-((((R)-1-(6-amino-9H-purin-9-yl)propan-2-yl)oxy)methyl)(((S)-1-(4-(trifluoromethoxy)phenyl)ethyl)amino)phos-phoryl)amino)-2-methylpropanoate and propyl 2-(((S)-((((R)-1-(6-amino-9H-purin-9-yl)propan-2-yl)oxy)methyl)(((S)-1-(4-(trifluoromethoxy)phenyl)ethyl)amino)phos-phoryl)amino)-2-methylpropanoate]", "values": [{"measurement": "IC50", "setting": "HIV-1 (H9/IIB strain); [2]", "result": 2.7, "unit": "nM"}, {"measurement": "IC50", "setting": "HIV-1 (H9/IIB strain); [3]", "result": 12, "unit": "nM"}, {"measurement": "GI Tract stability (%)", "setting": "[1]", "result": 98.1, "unit": "%"}]}
{"compound": "CCCOC(=O)C(C)(C)NP(=O)(CO[C@H](C)Cn1cnc2c(N)ncnc21)N[C@H](C)c1ccc(OC(F)(F)F)cc1C", "note": "(stereo partly drawn) [Example 21B, Propyl 2-(((R)-((((R)-1-(6-amino-9H-purin-9-yl)propan-2-yl)oxy)methyl)(((R)-1-(2-methyl-4-(trifluoromethoxy)phenyl)ethyl)amino)phos-phoryl)amino)-2-methylpropanoate and propyl 2-(((S)-((((R)-1-(6-amino-9H-purin-9-yl)propan-2-yl)oxy)methyl)(((R)-1-(2-methyl-4-(trifluoromethoxy)phenyl)ethyl)amino)phos-phoryl)amino)-2-methylpropanoate]", "values": [{"measurement": "IC50", "setting": "HIV-1 (H9/IIB strain); [2]", "result": 1, "unit": "nM"}, {"measurement": "IC50", "setting": "HIV-1 (H9/IIB strain); [3]", "result": 5.8, "unit": "nM"}, {"measurement": "GI Tract stability (%)", "setting": "[1]", "result": 71.5, "unit": "%"}]}
{"compound": "CCCOC(=O)C(C)(C)NP(=O)(CO[C@H](C)Cn1cnc2c(N)ncnc21)N[C@H](c1cccc(OC)c1)C(F)(F)F", "note": "(stereo partly drawn) [Example 25A, propyl 2-(((R)-((((R)-1-(6-amino-9H-purin-9-yl)propan-2-yl)oxy)methyl)(((R)-2,2,2-trifluoro-1-(3-methoxyphenyl)ethyl)amino)phosphoryl)a-mino)-2-methylpropanoate and propyl 2-(((S)-((((R)-1-(6-amino-9H-purin-9-yl)propan-2-yl)oxy)methyl)(((R)-2,2,2-trifluoro-1-(3-methoxyphenyl)ethyl)amino)phosphoryl)a-mino)-2-methylpropanoate]", "values": [{"measurement": "IC50", "setting": "HIV-1 (H9/IIB strain); [2]", "result": 4.6, "unit": "nM"}, {"measurement": "IC50", "setting": "HIV-1 (H9/IIB strain); [3]", "result": 54, "unit": "nM"}, {"measurement": "GI Tract stability (%)", "setting": "[1]", "result": 70.3, "unit": "%"}]}
{"compound": "CCCOC(=O)C(C)(C)N[P@@](=O)(CO[C@H](C)Cn1cnc2c(N)ncnc21)N[C@H](C)c1ccc(Cl)cc1C", "note": "[Example 29B, propyl 2-(((R)-((((R)-1-(6-amino-9H-purin-9-yl)propan-2-yl)oxy)methyl)(((R)-1-(4-chloro-2-methylphenyl)ethyl)amino)phosphoryl)ami-no)-2-methylpropanoate and propyl 2-(((S)-((((R)-1-(6-amino-9H-purin-9-yl)propan-2-yl)oxy)methyl)(((R)-1-(4-chloro-2-methyphenyl)ethyl)amino)phosphoryl)ami-no)-2-methylpropanoate]", "values": [{"measurement": "IC50", "setting": "HIV-1 (H9/IIB strain); [2]", "result": 2.5, "unit": "nM"}, {"measurement": "IC50", "setting": "HIV-1 (H9/IIB strain); [3]", "result": 21, "unit": "nM"}, {"measurement": "GI Tract stability (%)", "setting": "[1]", "result": 12.1, "unit": "%"}]}
{"compound": "CCCOC(=O)C(C)(C)NP(=O)(CO[C@H](C)Cn1cnc2c(N)ncnc21)N[C@H](C)c1ccc(C#N)cc1", "note": "(stereo partly drawn) [Example 31B, propyl 2-(((R)-((((R)-1-(6-amino-9H-purin-9-yl)propan-2-yl)oxy)methyl)(((R)-1-(4-cyanophenyl)ethyl)amino)phosphoryl)ami-no)-2-methylpropanoate and propyl 2-(((S)-((((R)-1-(6-amino-9H-purin-9-yl)propan-2-yl)oxy)methyl)(((R)-1-(4-cyanophenyl)ethyl)amino)phosphoryl)ami-no)-2-methylpropanoate]", "values": [{"measurement": "IC50", "setting": "HIV-1 (H9/IIB strain); [2]", "result": 8.8, "unit": "nM"}, {"measurement": "IC50", "setting": "HIV-1 (H9/IIB strain); [3]", "result": 110, "unit": "nM"}, {"measurement": "GI Tract stability (%)", "setting": "[1]", "result": 90.6, "unit": "%"}]}
{"compound": "CCCOC(=O)C(C)(C)N[P@](=O)(CO[C@H](C)Cn1cnc2c(N)ncnc21)N(C)[C@H](C)c1ccc(OC(F)(F)F)cc1", "note": "[Example 33B, propyl 2-(((R)-((((R)-1-(6-amino-9H-purin-9-yl)propan-2-yl)oxy)methyl)(methyl((R)-1-(4-(trifluoromethoxy)phenyl)ethyl)amino)phos-phoryl)amino)-2-methylpropanoate and propyl 2-(((S)-((((R)-1-(6-amino-9H-purin-9-yl)propan-2-yl)oxy)methyl)(methyl((R)-1-(4-(trifluoromethoxy)phenyl)ethyl)amino)phos-phoryl)amino)-2-methylpropanoate]", "values": [{"measurement": "IC50", "setting": "HIV-1 (H9/IIB strain); [2]", "result": 2.2, "unit": "nM"}, {"measurement": "IC50", "setting": "HIV-1 (H9/IIB strain); [3]", "result": 7.1, "unit": "nM"}, {"measurement": "GI Tract stability (%)", "setting": "[1]", "result": 97.2, "unit": "%"}]}
{"compound": "CC(C)OC(=O)C(C)(C)NP(=O)(CO[C@H](C)Cn1cnc2c(N)ncnc21)N[C@H](C)c1ccc(OC(F)(F)F)cc1", "note": "(stereo partly drawn) [Example 34B, isopropyl 2-(((R)-((((R)-1-(6-amino-9H-purin-9-yl)propan-2-yl)oxy)methyl)(((R)-1-(4-(trifluoromethoxy)phenyl)ethyl)amino)phos-phoryl)amino)-2-methylpropanoate and isopropyl 2-(((S)-((((R)-1-(6-amino-9H-purin-9-yl)propan-2-yl)oxy)methyl)(((R)-1-(4-(trifluoromethoxy)phenyl)ethyl)amino)phos-phoryl)amino)-2-methylpropanoate]", "values": [{"measurement": "IC50", "setting": "HIV-1 (H9/IIB strain); [2]", "result": 1.5, "unit": "nM"}, {"measurement": "IC50", "setting": "HIV-1 (H9/IIB strain); [3]", "result": 7.9, "unit": "nM"}, {"measurement": "GI Tract stability (%)", "setting": "[1]", "result": 67.4, "unit": "%"}]}
{"compound": "CC(C)OC(=O)C(C)(C)N[P@@](=O)(CO[C@H](C)Cn1cnc2c(N)ncnc21)N[C@H](C)c1ccc(Cl)cc1", "note": "[Example 35B, isopropyl 2-(((R)-((((R)-1-(6-amino-9H-purin-9-yl)propan-2-yl)oxy)methyl)(((R)-1-(4-chlorophenyl)ethyl)amino)phosphoryl)ami-no)-2-methylpropanoate and isopropyl 2-(((S)-((((R)-1-(6-amino-9H-purin-9-yl)propan-2-yl)oxy)methyl)(((R)-1-(4-chlorophenyl)ethyl)amino)phosphoryl)ami-no)-2-methylpropanoate]", "values": [{"measurement": "IC50", "setting": "HIV-1 (H9/IIB strain); [2]", "result": 2.9, "unit": "nM"}, {"measurement": "IC50", "setting": "HIV-1 (H9/IIB strain); [3]", "result": 22, "unit": "nM"}, {"measurement": "GI Tract stability (%)", "setting": "[1]", "result": 70.5, "unit": "%"}]}
{"compound": "CC(C)OC(=O)C(C)(C)N[P@@](=O)(CO[C@H](C)Cn1cnc2c(N)ncnc21)NC1(c2ccc(Cl)cc2)CC1", "note": "[Example 37B, isopropyl 2-(((R)-((((R)-1-(6-amino-9H-purin-9-yl)propan-2-yl)oxy)methyl)((1-(4-chlorophenyl)cyclopropyl)amino)phos-phoryl)amino)-2-methylpropanoate and isopropyl 2-(((S)-((((R)-1-(6-amino-9H-purin-9-yl)propan-2-yl)oxy)methyl)((1-(4-chlorophenyl)cyclopropyl)amino)phos-phoryl)amino)-2-methylpropanoate]", "values": [{"measurement": "IC50", "setting": "HIV-1 (H9/IIB strain); [2]", "result": 5.1, "unit": "nM"}, {"measurement": "IC50", "setting": "HIV-1 (H9/IIB strain); [3]", "result": 30, "unit": "nM"}, {"measurement": "GI Tract stability (%)", "setting": "[1]", "result": 21.1, "unit": "%"}]}
{"compound": "isopropyl 2-(((R)-((((R)-1-(6-amino-9H- purin-9-yl)propan-2-yl)oxy)methyl)((2-(4- chlorophenyl)propan-2- yl)amino)phosphoryl)amino)-2- methylpropanoate and isopropyl 2-(((S)-((((R)-1-(6-amino-9H- purin-9-yl)propan-2-yl)oxy)methyl)((2-(4- chlorophenyl)propan-2- yl)amino)phosphoroyl)amino)-2- methylpropanoate [Example 36A]", "values": [{"measurement": "IC50", "setting": "HIV-1 (H9/IIB strain); [2]", "result": 3.2, "unit": "nM"}, {"measurement": "IC50", "setting": "HIV-1 (H9/IIB strain); [3]", "result": 37, "unit": "nM"}, {"measurement": "GI Tract stability (%)", "setting": "[1]", "result": 20.2, "unit": "%"}]}
